target: human α2δ-1 subunit of Cav2.2 calcium channel (Homo sapiens (Human), UniProt P54289); test: Binding assay to human α2δ-1 subunit of Cav2.2 calcium channel ([3H]-Gabapentin); details: binding to α2δ-1, [3H]-Gabapentin; read-out: Ki (nM) α2δ-1
How it was run: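 Radioactivity on dried GF/C filters quantified by scintillation after filtration and three cold Tris-HCl (pH 7.4) washes. Incubation ran 60 min at 27° C with [3H]-gabapentin; 10 μM pregabalin gave nonspecific binding.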

Sequence of human α2δ-1 subunit of Cav2.2 calcium channel (P54289 25-1103): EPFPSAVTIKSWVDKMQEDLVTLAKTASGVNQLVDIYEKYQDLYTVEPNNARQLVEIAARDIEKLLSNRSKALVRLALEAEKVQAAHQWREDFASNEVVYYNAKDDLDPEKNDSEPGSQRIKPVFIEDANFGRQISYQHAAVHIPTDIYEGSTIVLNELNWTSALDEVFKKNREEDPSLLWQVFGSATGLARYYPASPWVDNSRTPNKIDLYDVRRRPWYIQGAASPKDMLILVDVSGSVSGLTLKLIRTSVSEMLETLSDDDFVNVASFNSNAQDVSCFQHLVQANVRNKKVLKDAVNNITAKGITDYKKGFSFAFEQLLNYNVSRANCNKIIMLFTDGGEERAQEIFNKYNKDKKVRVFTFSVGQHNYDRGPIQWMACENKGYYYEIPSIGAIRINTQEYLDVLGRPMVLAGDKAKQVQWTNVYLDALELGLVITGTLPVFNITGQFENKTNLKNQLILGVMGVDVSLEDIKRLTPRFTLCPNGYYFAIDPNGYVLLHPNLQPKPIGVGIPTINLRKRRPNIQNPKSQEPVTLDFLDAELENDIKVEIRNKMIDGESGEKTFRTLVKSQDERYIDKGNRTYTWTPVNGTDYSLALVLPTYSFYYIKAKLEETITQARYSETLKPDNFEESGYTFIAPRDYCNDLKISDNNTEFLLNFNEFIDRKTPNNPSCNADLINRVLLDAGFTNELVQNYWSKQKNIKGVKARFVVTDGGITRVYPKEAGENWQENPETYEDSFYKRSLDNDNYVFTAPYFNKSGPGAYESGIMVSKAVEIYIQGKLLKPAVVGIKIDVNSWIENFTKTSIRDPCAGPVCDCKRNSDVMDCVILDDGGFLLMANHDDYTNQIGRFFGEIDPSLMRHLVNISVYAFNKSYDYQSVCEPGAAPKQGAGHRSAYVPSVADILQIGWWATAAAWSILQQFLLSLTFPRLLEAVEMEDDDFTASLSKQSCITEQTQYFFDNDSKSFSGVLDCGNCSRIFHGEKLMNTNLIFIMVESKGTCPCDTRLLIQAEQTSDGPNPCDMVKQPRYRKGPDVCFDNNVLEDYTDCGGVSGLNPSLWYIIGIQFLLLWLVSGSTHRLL

`CCNc1ncc2c(n1)N(C)CCN(c1cccc(-n3cc(CN(Cc4ccccc4)C(=O)OC(C)(C)C)nn3)c1)C2=O` [Example 118, tert-butyl benzyl((1-(3-(2-(ethylamino)-9-methyl-5-oxo-5,7,8,9-tetrahydro-6H-pyrimido[4,5-e][1,4]diazepin-6-yl)phenyl)-1H-1,2,3-triazol-4-yl)methyl)carbamate] and `CCNc1ncc2c(n1)N(C)CCN(c1cccc(-n3cc(CCN(C)C(=O)OC(C)(C)C)nn3)c1)C2=O` [Example 120, tert-butyl (2-(1-(3-(2-(ethylamino)-9-methyl-5-oxo-5,7,8,9-tetrahydro-6H-pyrimido[4,5-e][1,4]diazepin-6-yl)phenyl)-1H-1,2,3-triazol-4-yl)ethyl)(methyl) carbamate] cannot be ordered by Ki: > 3000 nM for the first, > 3000 nM for the second.

`CCNc1ncc2c(n1)N(C)CCN(Cc1cccc(OC(CNC)c3ccccc3)c1)C2=O` (stereo not drawn) [Example 200, 2-(ethylamino)-9-methyl-6-(3-(2-(methylamino)-1-phenylethoxy)benzyl)-6,7,8,9-tetrahydro-5H-pyrimido[4,5-e][1,4]diazepin-5-one] and `CNCC(Oc1cccc(N2CCN(C)c3nc(SC)ncc3C2=O)c1)c1ccccc1` (stereo not drawn) [Example 155, 9-methyl-6-(3-(2-(methylamino)-1-phenylethoxy)phenyl)-2-(methylthio)-6,7,8,9-tetrahydro-5H-pyrimido[4,5-e][1,4]diazepin-5-one] cannot be ordered by Ki: > 3000 nM for the first, > 3000 nM for the second.

First: CNCCC(Oc1ccc(CN2CCN(C)c3nc(OC)ncc3C2=O)cc1)c1ccccc1F (stereo not drawn) [Example 376, 6-(4-(1-(2-fluorophenyl)-3-(methylamino)propoxy)benzyl)-2-methoxy-9-methyl-6,7,8,9-tetrahydro-5H-pyrimido[4,5-e][1,4]diazepin-5-one]
Second: CSc1ncc2c(n1)N(C)CCN(c1ccc(OC(CN(C)C(=O)OC(C)(C)C)c3ccccc3)cc1)C2=O (stereo not drawn) [Example 8, tert-butyl methyl(2-(4-(9-methyl-2-(methylthio)-5-oxo-5,7,8,9-tetrahydro-6H-pyrimido[4,5-e][1,4]diazepin-6-yl)phenoxy)-2-phenylethyl) carbamate]
The Ki of the first is lower: 500 to 3000 nM for the first, > 3000 nM for the second. The first binds more tightly here.

`CCNc1ncc2c(n1)N(C)CCN(c1cccc(COC(CCN(C)C(=O)OC(C)(C)C)c3cccs3)c1)C2=O` (stereo not drawn) [Example 83, tert-butyl (3-((3-(2-(ethylamino)-9-methyl-5-oxo-5,7,8,9-tetrahydro-6H-pyrimido[4,5-e][1,4]diazepin-6-yl)benzyl)oxy)-3-(thiophen-2-yl)propyl)(methyl) carbamate] and `CCNc1ncc2c(n1)N(C)CCN(c1cccc(CO[C@H](CCN(C)C(=O)OC(C)(C)C)c3cccs3)c1)C2=O` [Example 84, tert-butyl (R)-(3-((3-(2-(ethylamino)-9-methyl-5-oxo-5,7,8,9-tetrahydro-6H-pyrimido[4,5-e][1,4]diazepin-6-yl)benzyl)oxy)-3-(thiophen-2-yl)propyl)(methyl) carbamate] cannot be ordered by Ki: > 3000 nM for the first, > 3000 nM for the second.

`CCNc1ncc2c(n1)N(C)CCN(c1cccc(-n3cc(CCN(C)CCc4ccccc4)nn3)c1)C2=O` [Example 249, 2-(ethylamino)-9-methyl-6-(3-(4-(2-(methyl(phenethyl)amino)ethyl)-1H-1,2,3-triazol-1-yl)phenyl)-6,7,8,9-tetrahydro-5H-pyrimido[4,5-e][1,4]diazepin-5-one] and `CCNc1ncc2c(n1)N(C)CCN(c1cccc(OCCCN(C)C)c1)C2=O` [Example 257, 6-(3-(3-(dimethylamino)propoxy)phenyl)-2-(ethylamino)-9-methyl-6,7,8,9-tetrahydro-5H-pyrimido[4,5-e][1,4]diazepin-5-one] fall in the same range of Ki: 100 to 500 nM for the first, 100 to 500 nM for the second.

`CCNc1ncc2c(n1)N(C)CCN(c1ccc(O[Si](C)(C)C(C)(C)C)cc1)C2=O` [Example 115] and `CCNc1ncc2c(n1)N(C)CCN(c1cccc(OC(CCN(C)C(=O)OC(C)(C)C)c3cccs3)c1)C2=O` (stereo not drawn) [Example 80, tert-butyl (3-(3-(2-(ethylamino)-9-methyl-5-oxo-5,7,8,9-tetrahydro-6H-pyrimido[4,5-e][1,4]diazepin-6-yl)phenoxy)-3-(thiophen-2-yl)propyl)(methyl) carbamate] cannot be ordered by Ki: > 3000 nM for the first, > 3000 nM for the second.

From patent US10590140B2, “Tetrahydropyrimidodiazepine and dihydropyridodiazepine compounds for treating pain and pain related conditions” (ESTEVE PHARMACEUTICALS, S.A., priority 2016, dated 2020)
